Test results as given in PubChem BioAssay AID248 (DTP/NCI, 2004).
Where “and” joins values, the source holds several entries; their conditions need not be identical. Equal values may be shown once. Inconclusive results and toxic doses are left out. Rule as the data show it: active = T/C of 150% or more; inactive = T/C below 125%.

Test system: L1210 leukemia ip in BDF1 mice, survival T/C
Assay: NCI In Vivo Anticancer Drug Screen. Data for tumor model L1210 Leukemia (intraperitoneal) in B6D2F1 (BDF1) mice
Conditions: endpoint: mean survival time, higher = longer survival
Procedure, shortened: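 Each compound was tested against a transplantable tumor grown in mice. The endpoint was survival, with treated animals benchmarked against vehicle controls as a simple ratio.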

[1] = dose: 100.0 mg/kg/injection, schedule: Q01DX001 (ip), vehicle: saline
[2] = dose: 200.0 mg/kg/injection, schedule: Q01DX001 (ip), vehicle: saline
[3] = dose: 400.0 mg/kg/injection, schedule: Q01DX001 (ip), vehicle: saline
[4] = dose: 100.0 mg/kg/injection, schedule: Q01DX001 (ip), vehicle: carboxymethylcellulose (CMC)
[5] = dose: 400.0 mg/kg/injection, schedule: Q01DX001 (ip), vehicle: carboxymethylcellulose (CMC)
[6] = dose: 100.0 mg/kg/injection, schedule: Q01DX009 (ip), vehicle: saline with Tween-80
[7] = dose: 200.0 mg/kg/injection, schedule: Q01DX009 (ip), vehicle: saline with Tween-80
[8] = dose: 400.0 mg/kg/injection, schedule: Q01DX009 (ip), vehicle: saline with Tween-80
[9] = dose: 200.0 mg/kg/injection, schedule: Q01DX001 (ip), vehicle: carboxymethylcellulose (CMC)
[10] = dose: 100.0 mg/kg/injection, schedule: Q04DX003 (ip), vehicle: Klucel (hydroxypropylcellulose) (HPC)
[11] = dose: 200.0 mg/kg/injection, schedule: Q04DX003 (ip), vehicle: Klucel (hydroxypropylcellulose) (HPC)
[12] = dose: 400.0 mg/kg/injection, schedule: Q04DX003 (ip), vehicle: Klucel (hydroxypropylcellulose) (HPC)
[13] = dose: 100.0 mg/kg/injection, schedule: Q01DX009 (ip), vehicle: Klucel (hydroxypropylcellulose) (HPC)
[14] = dose: 200.0 mg/kg/injection, schedule: Q01DX009 (ip), vehicle: Klucel (hydroxypropylcellulose) (HPC)
[15] = dose: 400.0 mg/kg/injection, schedule: Q01DX009 (ip), vehicle: Klucel (hydroxypropylcellulose) (HPC)
[16] = dose: 75.0 mg/kg/injection, schedule: Q01DX001 (ip), vehicle: saline
[17] = dose: 150.0 mg/kg/injection, schedule: Q01DX001 (ip), vehicle: saline
[18] = dose: 100.0 mg/kg/injection, schedule: Q04DX003 (ip), vehicle: saline with Tween-80

Measured: T/C

COC(=O)C1=C[N+](C)(C)N=C1[O-]
inactive: dose: 100.0 mg/kg/injection, schedule: Q01DX009 (ip), vehicle: saline 97 % of control | dose: 200.0 mg/kg/injection, schedule: Q01DX009 (ip), vehicle: saline 94 % of control | dose: 400.0 mg/kg/injection, schedule: Q01DX009 (ip), vehicle: saline 93 % of control

CC1C(=O)C2CCCCC2C1=O (configuration not stated)
inactive: [1] 96 % of control | [2] 96 % of control | [3] 100 % of control

CCOC(=O)NC(/C=C/c1ccccc1)NC(=O)OCC
inactive: dose: 50.0 mg/kg/injection, schedule: Q01DX001 (ip), vehicle: carboxymethylcellulose (CMC) 92 % of control | [4] 95 % of control | [1] 102 % of control | [2] 96 % of control | [5] 95 % of control | [3] 100 % of control

CCCCCCCCCCCCCC[As](=O)(O)CCCCCCCCCCCCCC
inactive: dose: 50.0 mg/kg/injection, schedule: Q01DX001 (ip), vehicle: saline 103 % of control | [1] 101 % of control | [2] 101 % of control | [3] 95 % of control

CCCCCCC(c1ccccc1)c1ccccc1
inactive: [1] 100 % of control | [2] 97 % of control | [3] 100 % of control

O=C(c1cccs1)c1cscc1C(=O)c1cccs1
inactive: dose: 100.0 mg/kg/injection, schedule: Q01DX001 (ip), vehicle: saline with Tween-80 95 % of control | dose: 200.0 mg/kg/injection, schedule: Q01DX001 (ip), vehicle: saline with Tween-80 95 % of control | dose: 400.0 mg/kg/injection, schedule: Q01DX001 (ip), vehicle: saline with Tween-80 92 % of control

C=CCNC(=O)Oc1cccc(NC(=O)N(C)C)c1
inactive: [6] 107 % of control | [7] 109 % of control | [8] 120 % of control

O=C1CC=C2C3CC4N(CCC45c4ccccc4N1C25)C/C3=C\CBr (configuration not stated)
inactive: dose: 9.38 mg/kg/injection, schedule: Q01DX001 (ip), vehicle: other 100 % of control

Nc1c(I)cc2c(c1I)Cc1cc([N+](=O)[O-])ccc1-2
inactive: [4] 106 % of control | [9] 103 % of control | [5] 103 % of control

O=S1C(c2ccccc2)CC1c1ccccc1 (configuration not stated)
inactive: [10] 100 % of control | [11] 105 % of control | [12] 96 % of control

COc1ccc(OC)c(NC(=O)Nc2nccs2)c1
inactive: dose: 100.0 mg/kg/injection, schedule: Q01DX001 (ip), vehicle: Klucel (hydroxypropylcellulose) (HPC) 95 % of control | [13] 97 % of control | dose: 100.0 mg/kg/injection, schedule: Q04DX002 (ip), vehicle: Klucel (hydroxypropylcellulose) (HPC) 97 % of control and 98 % of control | [10] 96 % of control and 122 % of control | dose: 200.0 mg/kg/injection, schedule: Q01DX001 (ip), vehicle: Klucel (hydroxypropylcellulose) (HPC) 90 % of control | [14] 88 % of control | dose: 200.0 mg/kg/injection, schedule: Q04DX002 (ip), vehicle: Klucel (hydroxypropylcellulose) (HPC) 96 % of control and 90 % of control | [11] 100 % of control | dose: 400.0 mg/kg/injection, schedule: Q01DX001 (ip), vehicle: Klucel (hydroxypropylcellulose) (HPC) 95 % of control | [15] 91 % of control | dose: 400.0 mg/kg/injection, schedule: Q04DX002 (ip), vehicle: Klucel (hydroxypropylcellulose) (HPC) 96 % of control and 101 % of control | [12] 102 % of control and 116 % of control

CCOc1ccc(NC(=O)Nc2cccc(F)c2)cc1
inactive: dose: 12.5 mg/kg/injection, schedule: Q01DX009 (ip), vehicle: Klucel (hydroxypropylcellulose) (HPC) 88 % of control | dose: 25.0 mg/kg/injection, schedule: Q01DX009 (ip), vehicle: Klucel (hydroxypropylcellulose) (HPC) 90 % of control | dose: 50.0 mg/kg/injection, schedule: Q01DX009 (ip), vehicle: Klucel (hydroxypropylcellulose) (HPC) 88 % of control | [14] 90 % of control

COC(=O)C(=O)c1c(-c2ccc[n+](Cc3ccccc3)c2)[nH]c2ccccc12
inactive: [16] 101 % of control | [17] 93 % of control

CCOc1ccc(/C=N/NC(=O)CC2CCCCC2)cc1OC
inactive: [6] 90 % of control | [7] 88 % of control | [8] 90 % of control

O=[N+]([O-])c1ccc2c(c1)P(=O)(O)c1cc([N+](=O)[O-])ccc1-2
inactive: [16] 96 % of control | [17] 95 % of control | dose: 300.0 mg/kg/injection, schedule: Q01DX001 (ip), vehicle: saline 98 % of control

CCCCN(C)N=Nc1ccc(CCC(=O)NN)cc1
inactive: dose: 33.0 mg/kg/injection, schedule: Q01DX009 (ip), vehicle: carboxymethylcellulose (CMC) 107 % of control | dose: 50.0 mg/kg/injection, schedule: Q01DX009 (ip), vehicle: carboxymethylcellulose (CMC) 101 % of control

C[C@]12CCC(=O)C=C1CC[C@@H]1[C@@H]2CC[C@@]2(C)[C@H]1CC[C@]2(C)O
inactive: dose: 100.0 mg/kg/injection, schedule: Q04DX003 (sc), vehicle: steriod suspending solution 95 % of control | dose: 200.0 mg/kg/injection, schedule: Q04DX003 (sc), vehicle: steriod suspending solution 102 % of control | dose: 400.0 mg/kg/injection, schedule: Q04DX003 (sc), vehicle: steriod suspending solution 97 % of control

CC(CO)(CO)N=Cc1cc(Cl)ccc1O
inactive: [4] 91 % of control | [9] 96 % of control | [5] 109 % of control

CCCCC(CC)(CO)CO
inactive: [18] 110 % of control | dose: 200.0 mg/kg/injection, schedule: Q04DX003 (ip), vehicle: saline with Tween-80 100 % of control | dose: 400.0 mg/kg/injection, schedule: Q04DX003 (ip), vehicle: saline with Tween-80 111 % of control

CNC(=O)N(C)c1cc(N(C)C)nc(OC)n1
inactive: dose: 5.0 mg/kg/injection, schedule: Q01DX009 (ip), vehicle: Klucel (hydroxypropylcellulose) (HPC) 98 % of control | dose: 10.0 mg/kg/injection, schedule: Q01DX009 (ip), vehicle: Klucel (hydroxypropylcellulose) (HPC) 94 % of control | dose: 20.0 mg/kg/injection, schedule: Q01DX009 (ip), vehicle: Klucel (hydroxypropylcellulose) (HPC) 94 % of control

O=C(COc1ccccc1Cl)NCc1ccc(Cl)cc1
inactive: [13] 92 % of control | [10] 93 % of control | [14] 88 % of control | [11] 95 % of control | [15] 103 % of control | [12] 93 % of control

Cn1nnc(N/N=C/c2ccccc2)n1
inactive: dose: 6.25 mg/kg/injection, schedule: Q04DX003 (ip), vehicle: saline with Tween-80 100 % of control | dose: 12.5 mg/kg/injection, schedule: Q04DX003 (ip), vehicle: saline with Tween-80 107 % of control | dose: 25.0 mg/kg/injection, schedule: Q01DX009 (ip), vehicle: saline with Tween-80 94 % of control | dose: 25.0 mg/kg/injection, schedule: Q04DX003 (ip), vehicle: saline with Tween-80 94 % of control and 109 % of control | dose: 50.0 mg/kg/injection, schedule: Q04DX003 (ip), vehicle: saline with Tween-80 95 % of control | [18] 88 % of control
